Measured values published in ChEMBL document CHEMBL5325457, “Targeting m6A binding protein YTHDFs for cancer therapy” (Bioorg Med Chem, 2023).

Target: T1, YTH domain-containing family protein 2 (Homo sapiens, UniProt Q9Y5A9)
T1 sequence (Q9Y5A9 whole entry): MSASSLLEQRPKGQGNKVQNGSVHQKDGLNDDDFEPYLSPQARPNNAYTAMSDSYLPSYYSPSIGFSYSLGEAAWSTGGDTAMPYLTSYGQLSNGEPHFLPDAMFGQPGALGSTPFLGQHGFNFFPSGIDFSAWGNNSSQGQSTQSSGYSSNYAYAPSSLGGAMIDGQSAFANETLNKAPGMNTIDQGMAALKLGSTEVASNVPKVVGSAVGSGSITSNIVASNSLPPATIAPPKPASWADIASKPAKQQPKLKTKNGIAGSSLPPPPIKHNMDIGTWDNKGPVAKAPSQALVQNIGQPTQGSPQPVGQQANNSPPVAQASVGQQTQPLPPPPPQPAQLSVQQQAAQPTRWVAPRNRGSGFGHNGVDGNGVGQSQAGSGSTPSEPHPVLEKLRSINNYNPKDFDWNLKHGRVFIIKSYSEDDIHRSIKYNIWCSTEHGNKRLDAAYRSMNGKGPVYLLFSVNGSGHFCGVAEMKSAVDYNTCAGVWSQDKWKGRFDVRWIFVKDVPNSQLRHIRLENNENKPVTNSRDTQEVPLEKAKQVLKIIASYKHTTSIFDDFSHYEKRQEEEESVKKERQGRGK
Assay: Inhibition of YTHDF2 YTH domain (unknown origin) (383 to 579 residues) expressed as Escherichia coli BL21 (DE3) Rosetta cells by HTFR based binding assay

| IC50 [µM] | Compound |
| --- | --- |
| 174 | CNc1ncnc2c(C)[nH]nc12 |
| 410 | O=c1cc(C2CC2)[nH]c(=O)[nH]1 |
| 161 | Cn1c(=O)cc(C2CC2)[nH]c1=O |
| 491 | CNc1ncnc2c(-c3ccccc3)[nH]nc12 |

System: not listed separately
Assay: Inhibition of YTHDF (unknown origin)
Design: species or system Homo sapiens

| EC50 [µM] | Compound |
| --- | --- |
| 1.69 | CCN(CC)CCn1sc2ccccc2c1=O |
| 2.83 | O=c1c2ccccc2sn1CCN1CCOCC1 |

| Compound | EC50 [µM] |
| --- | --- |
| O=c1c2ccccc2[se]n1-c1ccccc1 [EBSELEN] | 1.5 |
